Measurements reported in ChEMBL document CHEMBL4837263, “N-Aromatic-Substituted Indazole Derivatives as Brain-Penetrant and Orally Bioavailable JNK3 Inhibitors” (ACS Med Chem Lett, 2021).
Activity calls are given as the source filed them. The calls are words filed in the database; no cut-off is given here.

What was measured:
[1] = Drug concentration in C57BL/6J mouse plasma at 30 mg/kg, po measured after 2 hrs by LC-MS/MS analysis; assay type: ADME, organism-based
[2] = Stability in human liver microsome assessed as half life; assay type: ADME; settings: liver microsomes
[3] = molecular target: T1, Casein kinase I isoform epsilon (Homo sapiens, UniProt P49674); test: Inhibition of human CK1E using KRRRAL[pS]VASLPGL as substrate by [gamma-33P]-ATP assay
Target sequence in this assay (P49674 whole entry, canonical isoform): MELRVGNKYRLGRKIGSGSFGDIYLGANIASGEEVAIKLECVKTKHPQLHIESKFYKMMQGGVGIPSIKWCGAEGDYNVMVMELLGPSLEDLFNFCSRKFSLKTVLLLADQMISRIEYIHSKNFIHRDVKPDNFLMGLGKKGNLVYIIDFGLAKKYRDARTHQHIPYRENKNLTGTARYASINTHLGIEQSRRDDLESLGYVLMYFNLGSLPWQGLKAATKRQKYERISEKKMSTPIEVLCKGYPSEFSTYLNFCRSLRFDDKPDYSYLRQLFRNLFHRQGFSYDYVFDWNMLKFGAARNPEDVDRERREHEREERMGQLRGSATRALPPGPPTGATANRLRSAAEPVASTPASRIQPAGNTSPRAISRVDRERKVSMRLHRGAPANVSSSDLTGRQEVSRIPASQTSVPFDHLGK

[4] = molecular target: T2, Mitogen-activated protein kinase 9 (Homo sapiens, UniProt P45984); test: Inhibition of JNK2 (unknown origin) using biotinylated FL-ATF-2 as substrate measured after 22 mins by homogeneous time-resolved fluorescence analysis
Target sequence in this assay (P45984 whole entry): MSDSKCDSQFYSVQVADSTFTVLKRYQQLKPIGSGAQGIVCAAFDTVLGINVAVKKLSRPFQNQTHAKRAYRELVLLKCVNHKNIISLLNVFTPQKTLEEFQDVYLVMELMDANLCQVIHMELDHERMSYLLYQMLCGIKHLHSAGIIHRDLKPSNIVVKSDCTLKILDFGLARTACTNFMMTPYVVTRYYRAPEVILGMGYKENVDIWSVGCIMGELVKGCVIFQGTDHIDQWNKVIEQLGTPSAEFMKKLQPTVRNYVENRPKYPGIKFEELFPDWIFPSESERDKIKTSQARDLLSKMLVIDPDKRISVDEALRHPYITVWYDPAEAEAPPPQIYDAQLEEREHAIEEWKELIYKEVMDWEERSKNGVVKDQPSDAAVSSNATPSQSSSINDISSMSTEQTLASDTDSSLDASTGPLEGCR

[5] = molecular target: Mitogen-activated protein kinase 8 (Homo sapiens, UniProt P45983); test: Inhibition of human JNK1 using ATF2 as substrate by [gamma-33P]-ATP assay; settings: dose 1.0 µM
[6] = molecular target: T2, Mitogen-activated protein kinase 9; test: Inhibition of human JNK2 at 1 uM using ATF2 as substrate by [gamma-33P]-ATP assay relative to control
Target sequence in this assay (P45984 whole entry, looked up): as the sequence (P45984 whole entry) above

[7] = molecular target: Mitogen-activated protein kinase 14 (Homo sapiens, UniProt Q16539); test: Inhibition of human p38alpha at 1 uM using MBP as substrate by [gamma-33P]-ATP assay relative to control
[8] = Stability in mouse liver microsome assessed as half life; assay type: ADME; settings: liver microsomes
[9] = molecular target: T3, Epithelial discoidin domain-containing receptor 1 (Homo sapiens, UniProt Q08345); test: Inhibition of human DDR1 using KKSRGDYMTMQIG as substrate by [gamma-33P]-ATP assay
[10] = molecular target: Mitogen-activated protein kinase 10 (Homo sapiens, UniProt P53779); test: Inhibition of human JNK3 at 1 uM using ATF2 as substrate by [gamma-33P]-ATP assay relative to control
[11] = molecular target: T3, Epithelial discoidin domain-containing receptor 1; test: Inhibition of human DDR1 at 1 uM using KKSRGDYMTMQIG as substrate by [gamma-33P]-ATP assay relative to control
[12] = molecular target: Protein-tyrosine kinase 6 (Homo sapiens) (UniProt Q13882); test: Inhibition of human BRK at 1 uM using poly[Glu:Tyr](4:1) as substrate by [gamma-33P]-ATP assay relative to control
[13] = molecular target: T1, Casein kinase I isoform epsilon; test: Inhibition of human CK1E at 1 uM using KRRRAL[pS]VASLPGL as substrate by [gamma-33P]-ATP assay relative to control
Target sequence in this assay (P49674 whole entry, looked up, canonical isoform): as the sequence (P49674 whole entry, canonical isoform) above

[14] = system: SH-SY5Y; test: Cytotoxicity against human SH-SY5Y cells assessed as reduction in cell viability at 10 uM measured after 48 hrs by MTT assay; assay type: cell-based
[15] = Drug concentration in C57BL/6J mouse brain at 30 mg/kg, po measured after 2 hrs by LC-MS/MS analysis; assay type: ADME, organism-based; settings: read-out: Ct
[16] = molecular target: Mitogen-activated protein kinase 10 (Rattus norvegicus) (UniProt P49187); test: Inhibition of JNK3 in rat primary neuron assessed as reduction in phosphorylation of APP at T668 residue at < 1 nM incubated for 30 mins by Western blot analysis; settings: dose nM <1, time 30.0 min
Sequence of Mitogen-activated protein kinase 10 (Rattus norvegicus) (P49187 whole entry): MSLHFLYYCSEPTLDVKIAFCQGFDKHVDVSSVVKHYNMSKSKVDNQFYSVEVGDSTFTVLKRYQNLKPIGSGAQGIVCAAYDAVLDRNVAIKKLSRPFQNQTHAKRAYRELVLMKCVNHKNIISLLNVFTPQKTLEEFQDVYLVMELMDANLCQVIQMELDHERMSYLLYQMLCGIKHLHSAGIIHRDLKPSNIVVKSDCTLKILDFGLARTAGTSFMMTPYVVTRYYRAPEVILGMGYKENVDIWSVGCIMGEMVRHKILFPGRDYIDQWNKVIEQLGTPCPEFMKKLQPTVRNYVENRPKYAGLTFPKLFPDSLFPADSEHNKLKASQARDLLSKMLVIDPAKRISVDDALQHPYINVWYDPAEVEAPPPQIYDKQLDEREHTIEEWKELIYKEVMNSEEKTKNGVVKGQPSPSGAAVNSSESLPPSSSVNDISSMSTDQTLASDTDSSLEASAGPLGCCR

T3 sequence (Q08345 whole entry, the tested form may be a part): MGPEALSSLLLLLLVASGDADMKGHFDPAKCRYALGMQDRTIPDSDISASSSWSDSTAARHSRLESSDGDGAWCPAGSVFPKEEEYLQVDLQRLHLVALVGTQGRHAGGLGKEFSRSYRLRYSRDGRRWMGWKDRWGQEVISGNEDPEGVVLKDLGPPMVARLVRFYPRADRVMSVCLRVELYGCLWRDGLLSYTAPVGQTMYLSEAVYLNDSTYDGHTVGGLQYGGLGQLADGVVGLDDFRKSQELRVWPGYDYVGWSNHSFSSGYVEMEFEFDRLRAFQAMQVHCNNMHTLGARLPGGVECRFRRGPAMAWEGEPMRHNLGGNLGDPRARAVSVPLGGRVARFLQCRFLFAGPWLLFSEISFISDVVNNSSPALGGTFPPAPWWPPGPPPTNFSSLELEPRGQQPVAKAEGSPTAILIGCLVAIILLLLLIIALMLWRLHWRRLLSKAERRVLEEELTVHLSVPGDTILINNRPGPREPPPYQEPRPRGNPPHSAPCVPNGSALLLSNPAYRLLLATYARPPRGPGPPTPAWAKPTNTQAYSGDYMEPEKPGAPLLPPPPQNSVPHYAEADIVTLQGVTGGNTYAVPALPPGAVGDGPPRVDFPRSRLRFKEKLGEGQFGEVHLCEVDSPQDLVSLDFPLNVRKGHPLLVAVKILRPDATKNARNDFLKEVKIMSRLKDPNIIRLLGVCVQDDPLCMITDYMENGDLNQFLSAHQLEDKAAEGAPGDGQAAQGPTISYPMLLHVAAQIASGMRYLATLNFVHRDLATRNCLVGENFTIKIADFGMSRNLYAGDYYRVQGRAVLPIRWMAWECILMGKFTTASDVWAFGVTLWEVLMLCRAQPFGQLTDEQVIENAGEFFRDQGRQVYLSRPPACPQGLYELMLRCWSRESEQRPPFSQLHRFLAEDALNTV
Sequence of Mitogen-activated protein kinase 14 (Q16539 whole entry): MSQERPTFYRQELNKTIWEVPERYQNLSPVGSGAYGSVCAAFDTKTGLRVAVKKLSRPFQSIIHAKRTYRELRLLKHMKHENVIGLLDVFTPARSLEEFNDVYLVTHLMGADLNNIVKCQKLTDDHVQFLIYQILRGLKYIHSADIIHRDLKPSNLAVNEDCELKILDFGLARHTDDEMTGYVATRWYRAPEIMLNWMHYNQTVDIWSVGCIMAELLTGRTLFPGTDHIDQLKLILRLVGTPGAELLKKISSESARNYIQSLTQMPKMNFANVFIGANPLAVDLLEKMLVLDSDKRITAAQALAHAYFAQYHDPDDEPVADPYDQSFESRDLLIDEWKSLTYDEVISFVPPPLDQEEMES
Sequence of Protein-tyrosine kinase 6 (Homo sapiens) (Q13882 whole entry, looked up, canonical isoform): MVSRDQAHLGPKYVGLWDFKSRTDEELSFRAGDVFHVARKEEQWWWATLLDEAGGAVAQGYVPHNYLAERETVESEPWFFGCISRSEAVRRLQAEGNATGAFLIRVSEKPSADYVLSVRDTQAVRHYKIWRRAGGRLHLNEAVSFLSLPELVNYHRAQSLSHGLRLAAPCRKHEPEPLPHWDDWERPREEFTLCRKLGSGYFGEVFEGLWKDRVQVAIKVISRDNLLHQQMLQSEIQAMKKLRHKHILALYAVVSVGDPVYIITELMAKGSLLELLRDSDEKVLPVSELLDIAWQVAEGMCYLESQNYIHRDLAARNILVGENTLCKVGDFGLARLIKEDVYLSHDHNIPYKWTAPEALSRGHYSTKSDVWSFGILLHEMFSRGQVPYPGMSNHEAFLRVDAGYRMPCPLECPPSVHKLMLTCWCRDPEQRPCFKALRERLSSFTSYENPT
Sequence of Mitogen-activated protein kinase 8 (P45983 whole entry): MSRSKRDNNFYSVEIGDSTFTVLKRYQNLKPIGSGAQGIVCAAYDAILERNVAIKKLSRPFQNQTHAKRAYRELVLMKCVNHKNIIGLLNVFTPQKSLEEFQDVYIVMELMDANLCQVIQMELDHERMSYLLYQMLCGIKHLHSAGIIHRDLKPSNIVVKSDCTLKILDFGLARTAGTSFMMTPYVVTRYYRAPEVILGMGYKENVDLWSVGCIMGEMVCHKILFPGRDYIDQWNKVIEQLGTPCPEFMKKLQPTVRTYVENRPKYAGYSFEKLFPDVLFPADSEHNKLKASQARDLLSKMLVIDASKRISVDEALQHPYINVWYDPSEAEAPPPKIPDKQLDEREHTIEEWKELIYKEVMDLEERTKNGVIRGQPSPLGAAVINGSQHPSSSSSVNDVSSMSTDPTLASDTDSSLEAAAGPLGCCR
Sequence of Mitogen-activated protein kinase 10 (P53779 whole entry, the tested form may be a part): as the sequence (P49187 whole entry) above, with H27Q, S32Y, V33I, V34A counted along it

Compound `Cc1nc2c(cnn2-c2csc(C(=O)NC3COC3)c2)cc1Nc1c(F)cccc1Cl` has a concentration at 2 h [1] of 5.9 µM, a half-life [2] of 1.53 h and an IC50 [3] of 100 nM. For the same compound, the IC50 [4] was 74 nM, the inhibition [5] was 30% and the inhibition [6] was 81%. The inhibition [7] was 75%, the half-life [8] was 1.28 h and the IC50 [9] was 247 nM. For the same compound, the inhibition [10] was 89%, the inhibition [11] was 73% and the inhibition [12] was 55%. The inhibition [13] was 78%, the Cell viability [14] was 116% and the concentration at 2 h [15] was 3.3 µM. For the same compound, the inhibition [16] was “Active”.
